14 compounds from ChEMBL document CHEMBL5036318, “Synthesis and Biological Evaluation of Phosphoester and Phosphorothioate Prodrugs of STING Agonist 3',3'-c-Di(2'F,2'dAMP)” (J Med Chem, 2021) can be followed below.

Assay [1] concerns the target T1, Stimulator of interferon genes protein (Homo sapiens, UniProt Q86WV6). The assay is described as follows: Activation of wild-type human STING expressed in HEK293T cells co-expressing IRF3-activated ISRE assessed as IRF3 reporter activation measured after 30 mins by luciferase reporter gene assay. It is filed as cell-based.
Assay [2] in a line: Potency index, ratio of test compound EC50 to prodrug EC50 for induction of INF-alpha production in healthy human PBMC incubated for 16 hrs. It is filed as functional.
Assay [3] in a line: Induction of INF-alpha production in healthy human PBMC incubated for 16 hrs. It is filed as functional, tissue-based.
The target in assay [4] is T1, Stimulator of interferon genes protein. The assay is described as follows: Activation of wild-type human STING expressed in HEK293T cells co-expressing IRF3-activated ISRE assessed as IRF3 reporter activation measured after 7 hrs by luciferase reporter gene assay. In kind it is cell-based.
Assay [5] shares this target. Description: Potency index, ratio of test compound EC50 to prodrug EC50 for activation of wild-type human STING expressed in HEK293T cells co-expressing IRF3-activated ISRE assessed as IRF3 reporter activation measured after 30 mins by luciferase reporter gene assay. It is filed as cell-based.
A short description of assay [6]: Induction of TNF-alpha production in healthy human PBMC incubated for 16 hrs. In kind it is functional, tissue-based.
For assay [7], the target named is T1, Stimulator of interferon genes protein. The assay is described as follows: Potency index, ratio of test compound EC50 to prodrug EC50 for activation of wild-type human STING expressed in HEK293T cells co-expressing IRF3-activated ISRE assessed as IRF3 reporter activation measured after 7 hrs by luciferase reporter gene assay. In kind it is cell-based.
A short description of assay [8]: Induction of INF-gamma production in healthy human PBMC incubated for 16 hrs. It is filed as functional, tissue-based.
Assay [9] has as its target T1, Stimulator of interferon genes protein. The assay is described as follows: Potency index, ratio of test compound EC50 to prodrug EC50 for activation of wild-type human STING expressed in digitonin treated THP1-Dual cells co-expressing IRF3-activated ISRE assessed as IRF3 reporter activation measured after 7 hrs by luciferase reporter gene assay. It is filed as cell-based.

Assay [10] has the same target. Description: Activation of wild-type human STING expressed in human THP1-Dual cells co-expressing IRF3-activated ISRE assessed as IRF3 reporter activation measured after 7 hrs by luciferase reporter gene assay. In kind it is cell-based.
Assay [11] shares this target. The assay is described as follows: Potency index, ratio of test compound EC50 to prodrug EC50 for activation of wild-type human STING expressed in human THP1-Dual cells co-expressing IRF3-activated ISRE assessed as IRF3 reporter activation measured after 30 mins by luciferase reporter gene assay. It is filed as cell-based.
Assay [12] has the same target. The assay is described as follows: Activation of wild-type human STING expressed in digitonin treated human THP1-Dual cells co-expressing IRF3-activated ISRE assessed as IRF3 reporter activation measured after 30 mins by luciferase reporter gene assay. In kind it is cell-based.
A short description of assay [13]: Potency index, ratio of test compound EC50 to prodrug EC50 for induction of INF-gamma production in healthy human PBMC incubated for 16 hrs. It is filed as functional.
Assay [14] can be described thus: Potency index, ratio of test compound EC50 to prodrug EC50 for induction of TNF-alpha production in healthy human PBMC incubated for 16 hrs. It is filed as functional.
Assay [15] is described as follows: cells. Conditions: Homo sapiens, HEK-293T.
Description: Activation of human STING REF mutant expressed in digitonin treated HEK293T cells co-expressing IRF3-activated ISRE assessed as IRF3 reporter activation by luciferase reporter gene assay
Assay [16] in a line: Activation of human STING Q mutant expressed in digitonin treated HEK293T cells co-expressing IRF3-activated ISRE assessed as IRF3 reporter activation by luciferase reporter gene assay. In kind it is cell-based. Conditions: HEK-293T.

T1 sequence (Q86WV6 whole entry): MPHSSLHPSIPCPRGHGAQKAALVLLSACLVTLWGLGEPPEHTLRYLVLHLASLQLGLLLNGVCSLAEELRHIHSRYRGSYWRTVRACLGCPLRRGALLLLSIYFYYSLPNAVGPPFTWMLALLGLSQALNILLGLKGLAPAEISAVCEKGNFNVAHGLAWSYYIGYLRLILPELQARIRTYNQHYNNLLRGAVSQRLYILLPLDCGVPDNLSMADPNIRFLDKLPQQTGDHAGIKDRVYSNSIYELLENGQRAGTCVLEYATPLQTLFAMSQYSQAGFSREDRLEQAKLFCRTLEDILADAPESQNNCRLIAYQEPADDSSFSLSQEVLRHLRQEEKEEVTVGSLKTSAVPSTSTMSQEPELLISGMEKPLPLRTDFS

For `CC(C)(C)C(=O)OCS[P@@]1(=O)OC[C@H]2O[C@@H](n3cnc4c(N)ncnc43)[C@H](F)[C@@H]2O[P@](=O)(SCOC(=O)C(C)(C)C)OC[C@H]2O[C@@H](n3cnc4c(N)ncnc43)[C@H](F)[C@@H]2O1`, the EC50 in [1] was determined as 40 nM; in assay [3], 70 nM; in [4], 40 nM; in assay [6] it was 100 nM; in assay [8], 50 nM; in assay [10], 20 nM. The EC50 in [12] amounted to 30 nM. In addition, the “Ratio EC50” value in [2] worked out at 260; in assay [5], 14; in assay [7] it was 3; in assay [9] it was 18; in [11], 94; in assay [13], 222. For the same compound, the “Ratio EC50” value in assay [14] was determined as 82.

As to `CC(C)OC(=O)OCO[P@]1(=O)OC[C@H]2O[C@@H](n3cnc4c(N)ncnc43)[C@H](F)[C@@H]2OP(=O)(O)OC[C@H]2O[C@@H](n3cnc4c(N)ncnc43)[C@H](F)[C@@H]2O1`, the EC50 in assay [1] came out at 1930 nM; in assay [4] it was 320 nM; in [10], 200 nM; in assay [12] it was 1710 nM. Also, the Ratio EC50 turned out to be 50 in [5], 25 in assay [7], 5 in [9] and 11 in assay [11].

As to `CC(C)(C)C(=O)OCS[P@@]1(=O)OC[C@H]2O[C@@H](n3cnc4c(N)ncnc43)[C@H](F)[C@@H]2O[P@@](=O)(SCOC(=O)C(C)(C)C)OC[C@H]2O[C@@H](n3cnc4c(N)ncnc43)[C@H](F)[C@@H]2O1`, the EC50 in assay [1] was 40 nM; in assay [3] it was 720 nM; in assay [4], 70 nM; in [6], 180 nM; in assay [8] it was 1190 nM; in assay [10], 50 nM. Also, in assay [12], the EC50 turned out to be 80 nM. In addition, the “Ratio EC50” value was 41 in assay [2]; 62 in assay [5]; 23 in assay [7]; 159 in [9]; 152 in assay [11]; 8 in assay [13]. For the same compound, the “Ratio EC50” value in assay [14] turned out to be 146.

As for `Nc1ncnc2c1ncn2[C@@H]1O[C@@H]2CO[P@@](=O)(OCOC(=O)c3ccccc3)O[C@H]3[C@@H](F)[C@H](n4cnc5c(N)ncnc54)O[C@@H]3COP(=O)(O)O[C@H]2[C@H]1F`, the EC50 was found to be 3090 nM in [1], 400 nM in assay [4], 270 nM in assay [10] and 1740 nM in [12]. The Ratio EC50 in [5] was determined as 31; in assay [7], 20; in assay [9], 4; in assay [11], 11.

For `CC(C)(C)C(=O)OCS[P@]1(=O)OC[C@H]2O[C@@H](n3cnc4c(N)ncnc43)[C@H](F)[C@@H]2O[P@](=O)(SCOC(=O)C(C)(C)C)OC[C@H]2O[C@@H](n3cnc4c(N)ncnc43)[C@H](F)[C@@H]2O1`, the EC50 in assay [1] amounted to 180 nM; in [3] it was 130 nM; in [4], 120 nM; in assay [6] it was 100 nM; in assay [8], 90 nM; in [10] it was 20 nM. For the same compound, the EC50 in [12] was determined as 60 nM. Moreover, the “Ratio EC50” value worked out at 301 in assay [2]; 38 in assay [5]; 10 in assay [7]; 15 in assay [9]; 55 in assay [11]; 68 in assay [13]. The “Ratio EC50” value in assay [14] is 93.

In the case of `CC(C)(C)C(=O)OCO[P@]1(=O)OC[C@H]2O[C@@H](n3cnc4c(N)ncnc43)[C@H](F)[C@@H]2OP(=O)(O)OC[C@H]2O[C@@H](n3cnc4c(N)ncnc43)[C@H](F)[C@@H]2O1`, the EC50 is 460 nM in assay [1], 130 nM in assay [4], 180 nM in [10] and 500 nM in [12]. In addition, the Ratio EC50 in assay [5] worked out at 212; in [7], 61; in assay [9], 6; in [11], 38.

Turning to `CCC(CC)C(=O)OCO[P@]1(=O)OC[C@H]2O[C@@H](n3cnc4c(N)ncnc43)[C@H](F)[C@@H]2O[P@](=O)(OCOC(=O)C(CC)CC)OC[C@H]2O[C@@H](n3cnc4c(N)ncnc43)[C@H](F)[C@@H]2O1`, the EC50 worked out at 70 nM in assay [1]; 50 nM in [3]; 10 nM in [4]; 20 nM in assay [6]; 4 nM in assay [8]; 20 nM in assay [10]. The EC50 in assay [12] turned out to be 110 nM. Besides, the results for the “Ratio EC50” value in [2], in assay [13] and in [14] were 985, 2135 and 1485, respectively.

For `CCC(CC)C(=O)OCO[P@]1(=O)OC[C@H]2O[C@@H](n3cnc4c(N)ncnc43)[C@H](F)[C@@H]2OP(=O)(O)OC[C@H]2O[C@@H](n3cnc4c(N)ncnc43)[C@H](F)[C@@H]2O1`, the EC50 in [1] amounted to 1360 nM; in assay [4] it was 450 nM; in assay [10] it was 150 nM; in [12] it was 970 nM. Moreover, the Ratio EC50 in assay [5] is 71; in assay [7], 18; in assay [9], 7; in [11], 20.

As to `Nc1ncnc2c1ncn2[C@@H]1O[C@@H]2CO[P@@](=O)(OCOC(=O)c3ccccc3)O[C@H]3[C@@H](F)[C@H](n4cnc5c(N)ncnc54)O[C@@H]3CO[P@](=O)(OCOC(=O)c3ccccc3)O[C@H]2[C@H]1F`, the EC50 came out at 700 nM in assay [3]; 40 nM in assay [4]; 230 nM in [6]; 30 nM in [8]; 40 nM in assay [10]; 330 nM in [12].

For the compound `CC(C)OC(=O)OCO[P@@]1(=O)OC[C@H]2O[C@@H](n3cnc4c(N)ncnc43)[C@H](F)[C@@H]2O[P@](=O)(OCOC(=O)OC(C)C)OC[C@H]2O[C@@H](n3cnc4c(N)ncnc43)[C@H](F)[C@@H]2O1`, the EC50 amounted to 940 nM in assay [1]; 1290 nM in assay [3]; 170 nM in assay [4]; 710 nM in assay [6]; 1470 nM in [8]; 110 nM in assay [10]. Besides, in assay [12], the EC50 turned out to be 970 nM. The “Ratio EC50” value in assay [2] came to 40; in assay [13], 6; in assay [14], 45.

For the compound `CCC(CC)C(=O)OCO[P@@]1(=O)OC[C@H]2O[C@@H](n3cnc4c(N)ncnc43)[C@H](F)[C@@H]2O[P@](=O)(OCOC(=O)C(CC)CC)OC[C@H]2O[C@@H](n3cnc4c(N)ncnc43)[C@H](F)[C@@H]2O1`, the EC50 was determined as 230 nM in assay [1]; 260 nM in assay [3]; 30 nM in assay [4]; 70 nM in [6]; 30 nM in assay [8]; 50 nM in assay [10]. For the same compound, the EC50 in assay [12] was found to be 350 nM. Further, the “Ratio EC50” value is 195 in assay [2], 285 in assay [13] and 432 in assay [14].

Turning to `Nc1nc2c(ncn2[C@@H]2O[C@@H]3COP(=O)(O)O[C@H]4[C@@H](O)[C@H](n5cnc6c(N)ncnc65)O[C@@H]4COP(=O)(O)O[C@H]3[C@H]2O)c(=O)[nH]1`, the EC50 in [3] is 26700 nM; in assay [6] it was over 300000 nM; in assay [8], 15100 nM; in assay [15] it was 4260 nM.

Consider `CC(C)OC(=O)OCO[P@]1(=O)OC[C@H]2O[C@@H](n3cnc4c(N)ncnc43)[C@H](F)[C@@H]2O[P@](=O)(OCOC(=O)OC(C)C)OC[C@H]2O[C@@H](n3cnc4c(N)ncnc43)[C@H](F)[C@@H]2O1`, for which the EC50 in assay [1] was determined as 310 nM; in [3] it was 360 nM; in assay [4], 30 nM; in [6], 350 nM; in [8], 160 nM; in assay [10] it was 30 nM. In assay [12], the EC50 was 380 nM. Further, the “Ratio EC50” value in assay [2] turned out to be 414; in assay [13], 51; in assay [14], 90.

With `Nc1nc2c(ncn2[C@@H]2O[C@@H]3COP(=O)(O)O[C@@H]4[C@H](O)[C@@H](COP(=O)(O)O[C@@H]2[C@@H]3O)O[C@H]4n2cnc3c(N)ncnc32)c(=O)[nH]1`, the EC50 was determined as 85100 nM in assay [1]; 170 nM in assay [16]; 17300 nM in assay [3]; 11700 nM in [4]; 72600 nM in assay [6]; 11500 nM in assay [8]. The results for the EC50 in [10] and in assay [12] were 2630 nM and 28500 nM, respectively.
